US20060069132A1, “Azolecarboxamide herbicides” (priority 2004, published 2006)

Tests used:
giant foxtail = assay: Test B pre-/postemergence herbicide test; assay type: in vivo, Setaria faberi
In short: (§1)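 Greenhouse pot assay with simultaneous preemergence (treated seed) and postemergence (2–18 cm seedlings) applications of surfactant-containing, non-phytotoxic solvent formulations. Response scored visually 13–15 days later on a 0–100 scale, 100 meaning complete control.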

wild oat = assay: Test B postemergence herbicide test; assay type: in vivo, Avena fatua
In short: (§2)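 Postemergence plants were sprayed with formulated test chemicals at 2 to 18 cm height (1- to 4-leaf stage); paddy species were grown to the 2-leaf stage. After 13 to 15 days in a greenhouse, injury was rated visually against untreated controls on a 0–100 scale (0 = no effect, 100 = complete control).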

cocklebur = assay: Test B pre-/postemergence herbicide test; assay type: in vivo, Xanthium strumarium
In short: (§3)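 Formulation: non-phytotoxic solvent mix with surfactant. Timing: preemergence on seed and postemergence on 2–18 cm plants, applied concurrently. Readout after 13–15 d greenhouse: visual 0–100 control rating against controls.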

blackgrass = assay: Test B postemergence herbicide test; assay type: in vivo, Alopecurus myosuroides
In short: (§4)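 Scale 0–100: zero equals no visible effect, 100 complete control, judged by eye relative to controls. Timing: 13 to 15 days in greenhouse post-treatment. Growth stage at spraying: two leaves (paddy) or one to four leaves, 2–18 cm (postemergence).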

[1] = tested on: smallflower umbrella sedge; assay: Test C flooded paddy test; assay type: in vivo, Cyperus difformis; settings: for Plant response rating, Sedge, Umbrella: 500 g ai/ha, visual rating after 12 to 14 days
barnyardgrass [2] = assay: Test C flooded paddy test; assay type: in vivo, Echinochloa crus-galli; settings: for Plant response rating, Barnyardgrass: 500 g ai/ha, visual rating after 12 to 14 days
In short: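 Postemergence sprays applied to plants 2 to 18 cm tall (1- to 4-leaf stage); paddy species grown to 2-leaf stage under flooding. After 12 to 14 days in greenhouse, visual rating versus untreated controls on 0–100 scale (0 no effect, 100 complete control).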

pigweed = assay: Test B pre-/postemergence herbicide test; assay type: in vivo, Amaranthus retroflexus
In short: as §1

velvetleaf = assay: Test B pre-/postemergence herbicide test; assay type: in vivo, Abutilon theophrasti
In short: as §1

ducksalad [3] = assay: Test C flooded paddy test; assay type: in vivo, Heteranthera limosa; settings: for Plant response rating, Ducksalad: 500 g ai/ha, visual rating after 12 to 14 days
rice [4] = assay: Test B pre-/postemergence herbicide test; assay type: in vivo, Oryza sativa; settings: 0 = no effect, 100 = complete control, preemergence; for Rice plant response rating (0 to 100 scale): 125 g ai/ha; for Plant response rating, Rice: 500 g ai/ha, visual rating
In short: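 Species tested were Echinochloa crus-galli, Ipomoea coccinea, Xanthium strumarium and Oryza sativa, treated both before emergence and at the 1- to 4-leaf stage; rice and barnyardgrass were also tested under flooding at 2 leaves. Greenhouse incubation lasted 13–15 days before visual 0–100 scoring.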

barnyardgrass [5] = assay: Test B pre-/postemergence herbicide test; assay type: in vivo, Echinochloa crus-galli
In short: as §3

ducksalad [6] = assay: Test B flooded paddy test; assay type: in vivo, Heteranthera limosa; settings: 1000 g ai/ha, scale 0 to 100 (0 no effect, 100 complete control)
In short: as §4

rice [7] = assay: Test B flooded paddy test; assay type: in vivo, Oryza sativa; settings: 1000 g ai/ha, scale 0 to 100 (0 no effect, 100 complete control)
In short: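 Greenhouse test; postemergence application to plants at 1–4 leaves (2–18 cm); paddy species at 2 leaves; evaluated visually vs controls at 13–15 days; scale 0–100 (100 = complete control).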

Surinam grass = assay: Test B pre-/postemergence herbicide test; assay type: in vivo, Urochloa decumbens
In short: as §1

wheat = assay: Test B postemergence herbicide test; assay type: in vivo, Triticum aestivum; set-up: key to Wheat plant response rating: 0 = no effect, 100 = complete control
In short: as §2

corn = assay: Test B pre-/postemergence herbicide test; assay type: in vivo, Zea mays
In short: as §1

rice [8] = assay: Test C flooded paddy test; assay type: in vivo, Oryza sativa; settings: for Plant response rating, Rice: 500 g ai/ha, visual rating after 12 to 14 days
In short: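 Injury scored visually against controls on a 0 (no effect) to 100 (complete control) scale, 12 to 14 days after treatment in greenhouse. Flooded paddy plants treated at 2-leaf stage; postemergence plants at 1- to 4-leaf stage, 2 to 18 cm tall.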

large crabgrass = assay: Test B pre-/postemergence herbicide test; assay type: in vivo, Digitaria sanguinalis
In short: as §1

barnyardgrass [9] = assay: Test B flooded paddy test; assay type: in vivo, Echinochloa crus-galli; settings: 1000 g ai/ha, scale 0 to 100 (0 no effect, 100 complete control)
In short: as §4

[10] = tested on: small flower umbrella sedge; assay: Test B flooded paddy test; assay type: in vivo, Cyperus difformis; settings: 1000 g ai/ha, scale 0 to 100 (0 no effect, 100 complete control)
In short: as §4

lambsquarters = assay: Test B pre-/postemergence herbicide test; assay type: in vivo, Chenopodium album
In short: as §1

morningglory = assay: Test B pre-/postemergence herbicide test; assay type: in vivo, Ipomoea coccinea
In short: as §3

[11] = 125 g ai/ha; 0 = no effect, 100 = complete control; preemergence
[12] = 500 g ai/ha; visual rating, 0 = no effect, 100 = complete control; preemergence
[13] = postemergence, 125 g ai/ha; visual rating, scale 0 (no effect) to 100 (complete control)
[14] = postemergence, 500 g ai/ha; scale 0 to 100, 0 is no effect, 100 is complete control
[15] = 125 g ai/ha, scale 0 to 100 (0 no effect, 100 complete control)
[16] = 250 g ai/ha, scale of 0 to 100, 0 is no effect, 100 is complete control
[17] = scale 0 to 100 (0 no effect, 100 complete control)
[18] = 62 g ai/ha, scale 0 to 100 (0 no effect, 100 complete control)
[19] = 125 g ai/ha; visual rating, scale 0 (no effect) to 100 (complete control); postemergence

## CCn1nc(C(C)(C)C)c(F)c1C(=O)Nc1cccc(C(=O)N(C)C)n1 [Compound 274]
Giant foxtail; [11]
  Foxtail, Giant plant response rating (0 to 100 scale): 10
Giant foxtail; [12]
  Plant response rating, Foxtail, Giant: 90
Giant foxtail; [13]
  Foxtail, Giant plant response rating: 20
Giant foxtail; [14]
  Foxtail, Giant plant response rating: 50
Wild oat; [13]
  Oat, Wild plant response rating: 20
Wild oat; [14]
  Oat, Wild plant response rating: 40
cocklebur; [11]
  Cocklebur plant response rating (0 to 100 scale): 0
cocklebur; [12]
  Plant response rating, Cocklebur: 0
cocklebur; [13]
  Cocklebur plant response rating: 0
cocklebur; [14]
  Cocklebur plant response rating: 10
blackgrass; [13]
  Blackgrass plant response rating: 30
blackgrass; [14]
  Blackgrass plant response rating: 30
[1]; 62 g ai/ha, scale 0 to 100
  Sedge, Umbrella plant response rating: 0
[1]; [15]
  Sedge, Umbrella plant response rating: 50
[1]; [16]
  Sedge, Umbrella plant response rating: 70
[1]; [17]
  Plant response rating, Sedge, Umbrella: 75
Barnyardgrass [2]; [18]
  Barnyardgrass plant response rating: 0
Barnyardgrass [2]; [15]
  Barnyardgrass plant response rating: 10
Barnyardgrass [2]; [16]
  Barnyardgrass plant response rating: 30
Barnyardgrass [2]; [17]
  Plant response rating, Barnyardgrass: 60
pigweed; [11]
  Pigweed plant response rating (0 to 100 scale): 30
pigweed; [12]
  Plant response rating, Pigweed: 100
pigweed; [13]
  Pigweed plant response rating: 40
pigweed; [14]
  Pigweed plant response rating: 60
velvetleaf; [11]
  Velvetleaf plant response rating (0 to 100 scale): 20
velvetleaf; [12]
  Plant response rating, Velvetleaf: 70
velvetleaf; [13]
  Velvetleaf plant response rating: 10
velvetleaf; [14]
  Velvetleaf plant response rating: 10
Ducksalad [3]; 62 g ai/ha, scale 0 to 100
  Ducksalad plant response rating: 0
Ducksalad [3]; [15]
  Ducksalad plant response rating: 0
Ducksalad [3]; [16]
  Ducksalad plant response rating: 0
Ducksalad [3]; [17]
  Plant response rating, Ducksalad: 20
Rice [4]
  Rice plant response rating (0 to 100 scale): 30
  Plant response rating, Rice: 80
Barnyardgrass [5]; [11]
  Barnyardgrass plant response rating (0 to 100 scale): 60
Barnyardgrass [5]; [12]
  Plant response rating, Barnyardgrass: 100
Barnyardgrass [5]; [13]
  Barnyardgrass plant response rating: 0
Barnyardgrass [5]; [14]
  Barnyardgrass plant response rating: 10
Ducksalad [6]
  Ducksalad plant response rating: 70
Rice [7]
  Rice plant response rating: 60
Surinam grass; [11]
  Surinam Grass plant response rating (0 to 100 scale): 50
Surinam grass; [12]
  Plant response rating, Surinam Grass: 80
Surinam grass; [13]
  Surinam Grass plant response rating: 20
Surinam grass; [14]
  Surinam Grass plant response rating: 30
wheat; [13]
  Wheat plant response rating: 20
wheat; [14]
  Wheat plant response rating: 20
corn; [11]
  Corn plant response rating (0 to 100 scale): 0
corn; [12]
  Plant response rating, Corn: 80
corn; [13]
  Corn plant response rating: 0
corn; [14]
  Corn plant response rating: 20
Rice [8]; 62 g ai/ha, scale 0 to 100
  Rice plant response rating: 0
Rice [8]; [15]
  Rice plant response rating: 0
Rice [8]; [16]
  Rice plant response rating: 15
Rice [8]; [17]
  Plant response rating, Rice: 45
Large crabgrass; [11]
  Crabgrass, Large plant response rating (0 to 100 scale): 10
Large crabgrass; [12]
  Plant response rating, Crabgrass, Large: 100
Large crabgrass; [13]
  Crabgrass, Large plant response rating: 0
Large crabgrass; [14]
  Crabgrass, Large plant response rating: 0
Barnyardgrass [9]
  Barnyardgrass plant response rating: 70
[10]
  Sedge, Umbrella plant response rating: 80
lambsquarters; [11]
  Lambsquarters plant response rating (0 to 100 scale): 70
lambsquarters; [12]
  Plant response rating, Lambsquarters: 100
lambsquarters; [13]
  Lambsquarters plant response rating: 40
lambsquarters; [14]
  Lambsquarters plant response rating: 70
morningglory; [11]
  Morningglory plant response rating (0 to 100 scale): 0
morningglory; [12]
  Plant response rating, Morningglory: 10
morningglory; [13]
  Morningglory plant response rating: 0
morningglory; [14]
  Morningglory plant response rating: 60

## CCn1nc(C2(C)CC2)cc1C(=O)Nc1cccc(C(=O)N(C)C)c1 [Compound 303]
Giant foxtail; [11]
  Foxtail, Giant plant response rating (0 to 100 scale): 50
Giant foxtail; [19]
  Foxtail, Giant plant response rating: 50
Giant foxtail; [12]
  Plant response rating, Foxtail, Giant: 100
Giant foxtail; [14]
  Foxtail, Giant plant response rating: 50
Wild oat; [19]
  Oat, Wild plant response rating: 30
Wild oat; [14]
  Oat, Wild plant response rating: 40
cocklebur; [11]
  Cocklebur plant response rating (0 to 100 scale): 0
cocklebur; [19]
  Cocklebur plant response rating: 10
cocklebur; [12]
  Plant response rating, Cocklebur: 20
cocklebur; [14]
  Cocklebur plant response rating: 30
blackgrass; [19]
  Blackgrass plant response rating: 20
blackgrass; [14]
  Blackgrass plant response rating: 40
[1]; 62 g ai/ha, scale 0 to 100
  Sedge, Umbrella plant response rating: 75
[1]; [15]
  Sedge, Umbrella plant response rating: 85
[1]; [16]
  Sedge, Umbrella plant response rating: 85
[1]; [17]
  Plant response rating, Sedge, Umbrella: 90
Barnyardgrass [2]; [18]
  Barnyardgrass plant response rating: 30
Barnyardgrass [2]; [15]
  Barnyardgrass plant response rating: 45
Barnyardgrass [2]; [16]
  Barnyardgrass plant response rating: 80
Barnyardgrass [2]; [17]
  Plant response rating, Barnyardgrass: 95
pigweed; [11]
  Pigweed plant response rating (0 to 100 scale): 100
pigweed; [19]
  Pigweed plant response rating: 70
pigweed; [12]
  Plant response rating, Pigweed: 100
pigweed; [14]
  Pigweed plant response rating: 90
velvetleaf; [19]
  Velvetleaf plant response rating: 30
velvetleaf; [12]
  Plant response rating, Velvetleaf: 100
velvetleaf; [14]
  Velvetleaf plant response rating: 70
Ducksalad [3]; 62 g ai/ha, scale 0 to 100
  Ducksalad plant response rating: 55
Ducksalad [3]; [15]
  Ducksalad plant response rating: 75
Ducksalad [3]; [16]
  Ducksalad plant response rating: 80
Ducksalad [3]; [17]
  Plant response rating, Ducksalad: 85
Rice [4]
  Rice plant response rating (0 to 100 scale): 70
  Plant response rating, Rice: 80
Barnyardgrass [5]; [11]
  Barnyardgrass plant response rating (0 to 100 scale): 70
Barnyardgrass [5]; [19]
  Barnyardgrass plant response rating: 40
Barnyardgrass [5]; [12]
  Plant response rating, Barnyardgrass: 90
Barnyardgrass [5]; [14]
  Barnyardgrass plant response rating: 40
Ducksalad [6]
  Ducksalad plant response rating: 90
Rice [7]
  Rice plant response rating: 90
Surinam grass; [11]
  Surinam Grass plant response rating (0 to 100 scale): 50
Surinam grass; [19]
  Surinam Grass plant response rating: 10
Surinam grass; [12]
  Plant response rating, Surinam Grass: 100
Surinam grass; [14]
  Surinam Grass plant response rating: 20
wheat; [19]
  Wheat plant response rating: 10
wheat; [14]
  Wheat plant response rating: 20
corn; [19]
  Corn plant response rating: 70
corn; [12]
  Plant response rating, Corn: 70
corn; [14]
  Corn plant response rating: 70
Rice [8]; 62 g ai/ha, scale 0 to 100
  Rice plant response rating: 30
Rice [8]; [15]
  Rice plant response rating: 65
Rice [8]; [16]
  Rice plant response rating: 80
Rice [8]; [17]
  Plant response rating, Rice: 85
Large crabgrass; [11]
  Crabgrass, Large plant response rating (0 to 100 scale): 100
Large crabgrass; [19]
  Crabgrass, Large plant response rating: 10
Large crabgrass; [12]
  Plant response rating, Crabgrass, Large: 100
Large crabgrass; [14]
  Crabgrass, Large plant response rating: 60
Barnyardgrass [9]
  Barnyardgrass plant response rating: 90
[10]
  Sedge, Umbrella plant response rating: 90
lambsquarters; [11]
  Lambsquarters plant response rating (0 to 100 scale): 100
lambsquarters; [19]
  Lambsquarters plant response rating: 80
lambsquarters; [12]
  Plant response rating, Lambsquarters: 100
lambsquarters; [14]
  Lambsquarters plant response rating: 90
morningglory; [11]
  Morningglory plant response rating (0 to 100 scale): 10
morningglory; [19]
  Morningglory plant response rating: 80
morningglory; [12]
  Plant response rating, Morningglory: 50
morningglory; [14]
  Morningglory plant response rating: 90
